Read-outs that look alike come from different tables or passages of the source.
How the values were obtained:
[1] = tested on: P. falciparum 3D7 (Chloroquine-sensitive); assay: Plasmodium falciparum growth inhibition assay (SYBR green I), 3D7 strain; format: cell-based; details: read-out: IC50/Pf3D7
[2] = tested on: P. falciparum Dd2 (multidrug-resistant); assay: Plasmodium falciparum growth inhibition assay (SYBR green I), Dd2 strain; format: cell-based; details: for IC50: Plasmodium falciparum, read-out: IC50/PfDd2
[3] = tested on: Plasmodium falciparum K1 (multi-resistant); set-up: method as in PMID 29172699; details: Pf K1; ref [18]; cited from earlier work
[4] = tested on: human cervix carcinoma KB-3-1 cancer cell lines
[5] = tested on: Plasmodium falciparum FCB1 (chloroquine-resistant); set-up: method as in PMID 15863333; details: Pf FCB1; ref [17]; cited from earlier work
[6] = tested on: human cervix carcinoma KB-3-1 cancer cell lines; assay: Cytotoxicity on KB-3-1 cells; details: called IC50 in the text
[7] = 3D7, compounds and reference drugs, 72 h incubation
[8] = DD2, compounds and reference drugs, 72 h incubation

Compound	RI: [IC50PfDd2/IC50Pf3D7] ([2]; Resistance Index)	IC50 [3]	IC50 ([1]; 3D7, 72 h)	IC50 ([2]; DD2, 72 h)	also measured
C[C@@H]1CC[C@H]2[C@@H](C)C(=O)O[C@@H]3O[C@@]4(C)CC[C@@H]1[C@]32OO4 [Artemisinin, reference compound]	0.71	–	–	–	IC50 [1, 7]: 0.035 µM; IC50 [2, 8]: 0.025 ± 0.006 µM
CC(O)C1CCC2C3CC=C4CC(N)CCC4(C)C3CCC12C (centres unmarked) [compound 15, Holaphyllaminol]	–	11.7 µM	–	–	–
CC(=O)C1CCC2C3CC=C4CC(N)CCC4(C)C3CCC12C (centres unmarked) [compound 14, Holaphyllamine]	1.12	–	49.5 ± 4.83 µM	55.8 ± 9.75 µM	CC50 on KB-3-1 [4]: 9.8 µM
C[C@H]1[C@H]2CC[C@H]3[C@@H]4CC=C5C[C@@H](N(C)C)CC[C@]5(C)[C@H]4CC[C@]23CN1C [compound 5, Conessine]	1.09	–	26 ± 0.43 µM	28.5 ± 0.704 µM	IC50 [5]: 1.04 µM
CNC1CCC2(C)C(=CCC3C2CCC24CNC(C)C2CCC34)C1 (centres unmarked) [compound 4, Conimin/conamine]	–	8 µM	–	–	–
CCOC(=O)c1c(C)cc(O)cc1O [compound 26, ethylorsalinate]	–	–	–	–	IC50 [1, 7]: > 50 µM; IC50 [2, 8]: > 50 µM
CCN(CC)CCCC(C)Nc1ccnc2cc(Cl)ccc12 (centres unmarked) [Chloroquine, reference compound]	–	–	0.045 ± 0.003 µM	0.73 ± 0.09 µM	RI: [IC50PfDd2/IC50Pf3D7] [2]: 16.22
CNC1CCC2(C)C(=CCC3C2CCC2(C)C(C(C)=O)CCC32)C1 (centres unmarked) [compound 16, N-methylholaphyllamine]	–	10.6 µM	–	–	–
Cryptophycin	–	–	–	–	CC50 on KB-3-1 [6]: 1.3 × 10^−5 μM µM; CC50 on KB-3-1 ([6]; listed as cryptophycin): 1.3e-05 µM
CNC1CCC2(C)C(=CCC3C2CC(OC(=O)CC=C(C)C)C24CN(C)C(C)C2CCC34)C1 (centres unmarked) [compound 11, Holarrhesine]	–	–	–	–	IC50 [5]: 0.97 ± 0.11 µM
COc1cc(C)c2c(=O)c3c(O)cc(OC)cc3oc2c1 [compound 27, lichexanthone]	1.09	–	33.4 ± 1.2 µM	36.5 ± 1.39 µM	–
CC(C)=CCC(=O)O[C@@H]1C[C@H]2[C@@H](CC=C3C[C@@H](N(C)C)CC[C@@]32C)[C@@H]2CC[C@@H]3[C@H](C)N(C)C[C@]312 [compound 10, Holarrhetine]	–	–	–	–	IC50 [5]: 1.13 ± 0.32 µM
CC1N=CC23CCC4C(CC=C5CC(N)CCC54C)C2CCC13 (centres unmarked) [compound 3, Irheline]	–	1.2 µM	–	–	IC50 [1, 7]: > 50 µM; IC50 [2, 8]: > 50 µM
